Experiments:
Neutrophil elastase [1] = molecular target: T1, Neutrophil elastase (Homo sapiens, UniProt P08246); experiment: Inhibition of Human leukocyte elastase
T1 sequence (P08246 whole entry): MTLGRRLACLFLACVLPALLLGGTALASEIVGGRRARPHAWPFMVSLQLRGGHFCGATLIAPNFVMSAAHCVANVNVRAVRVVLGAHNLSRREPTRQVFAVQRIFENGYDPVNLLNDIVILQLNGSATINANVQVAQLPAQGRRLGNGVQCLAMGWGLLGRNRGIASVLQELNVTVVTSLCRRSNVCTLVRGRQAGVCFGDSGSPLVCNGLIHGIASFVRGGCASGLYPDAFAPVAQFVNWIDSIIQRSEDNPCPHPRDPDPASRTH

Neutrophil elastase [2] = molecular target: T1, Neutrophil elastase; experiment: Compound was tested for its inhibitory effect against Human leukocyte elastase (HLE)

IC50 (Neutrophil elastase [1]): > 20 µM
Ki (Neutrophil elastase [2]): 310 µM
SMILES: CC1=C(C(=O)OCc2ccccc2)N2C(=O)C[C@H]2S1 (racemic)

Source: ChEMBL document CHEMBL1151071, “Inhibition of human leukocyte elastase. 5. Inhibition by 6-alkyl substituted penem benzyl esters” (Bioorg Med Chem Lett, 1993)
